According to US20120172368A1, “Bis-Benzimidazole Derivatives” (priority 2009, published 2012):

Test system: HCV type 1b replicon in Huh-7 luc/neo (Huh-Luc) cells
Assay: HCV replicon assay (Huh-Luc, luciferase readout)
Format: cell-based
Details: Hepatitis C virus, Huh-7, 72 h, three days incubation, luciferase activity, read-out: HCV-REP-HUH-LUC_EC50
Text: The compounds of formula (I) were examined for inhibitory activity in the HCV replicon. This cellular assay is based on a bicistronic expression construct, as described by Lohmann et al. (1999) Science vol. 285 pp. 110-113 with modifications described by Krieger et al. (2001) Journal of Virology 75: 4614-4624, in a multi-target screening strategy.
In essence, the method was as follows:
The assay utilized the stably transfected cell line Huh-7 luc/neo (hereafter referred to as Huh-Luc). This cell line harbors an RNA encoding a bicistronic expression construct comprising the wild type NS3-NS5B regions of HCV type 1b translated from an Internal Ribosome Entry Site (IRES) from encephalomyocarditis virus (EMCV), preceded by a reporter portion (FfL-luciferase), and a selectable marker portion (neoR, neomycine phosphotransferase). The construct is flanked by 5′ and 3′ NTRs (non-translated regions) from HCV type 1b. Continued culture of the replicon cells in the presence of G418 (neoR) is dependent on the replication of the HCV RNA. The stably transfected replicon cells that express HCV RNA, which replicates autonomously and to high levels, encoding inter alia luciferase, were used for screening the antiviral compounds.
The replicon cells were plated in 384 well plates in the presence of the test and control compounds which were added in various concentrations. Following an incubation of three days, HCV replication was measured by assaying luciferase activity (using standard luciferase assay substrates and reagents and a Perkin Elmer ViewLux™ ultraHTS microplate imager). Replicon cells in the control cultures have high luciferase expression in the absence of any inhibitor. The inhibitory activity of the compound on luciferase activity was monitored on the Huh-Luc cells, enabling a dose-response curve for each test compound. EC50 values were then calculated, which represent the amount of compound required to decrease the level of detected luciferase activity by 50%, or more specifically, to reduce the ability of the genetically linked HCV replicon RNA to replicate.

| SMILES | EC50 |
| --- | --- |
| COC(=O)N[C@H](C(=O)N1CCC[C@H]1c1nc2ccc(-c3ccc(-c4ccc5nc([C@@H]6CCCN6C(=O)[C@@H](NC(=O)OC)[C@@H](C)OC)[nH]c5c4)nc3)cc2[nH]1)[C@@H](C)OC [Compound 9] | 0.31 nM |
| COC(=O)N[C@H](C(=O)N1CCC[C@H]1c1nc2cc(-c3ccc(-c4ccc5nc([C@@H]6CCCN6C(=O)[C@@H](NC(=O)OC)C(C)C)[nH]c5c4)nn3)ccc2[nH]1)C(C)C [Compound 1] | 0.13 nM |
| COC(=O)N[C@@H](C(=O)N1CCC[C@H]1c1nc2cc(-c3ccc(-c4ccc5nc([C@@H]6CCCN6C(=O)[C@H](NC(=O)OC)c6ccccc6)[nH]c5c4)nn3)ccc2[nH]1)c1ccccc1 [Compound 6] | 0.045 nM |
| COC(=O)N[C@H](C(=O)N1CCC[C@H]1c1nc2cc(-c3ncc(-c4ccc5nc([C@@H]6CCCN6C(=O)[C@@H](NC(=O)OC)C6CC6)[nH]c5c4)cn3)ccc2[nH]1)C1CC1 [Compound 7] | 0.059 nM |
| COC(=O)N[C@@H](C(=O)N1CCC[C@H]1c1nc2cc(-c3ncc(-c4ccc5nc([C@@H]6CCCN6C(=O)[C@H](NC(=O)OC)c6ccccc6)[nH]c5c4)cn3)ccc2[nH]1)c1ccccc1 [Compound 5] | < 0.015 nM |
| COC(=O)N[C@H](C(=O)N1CCC[C@H]1c1nc2cc(-c3ncc(-c4ccc5nc([C@@H]6CCCN6C(=O)[C@@H](NC(=O)OC)[C@@H](C)OC)[nH]c5c4)cn3)ccc2[nH]1)[C@@H](C)OC [Compound 3] | 0.13 nM |
| COC(=O)N[C@H](C(=O)N1CCC[C@H]1c1nc2cc(-c3ncc(-c4ccc5nc([C@@H]6CCCN6C(=O)[C@@H](NC(=O)OC)C(C)C)[nH]c5c4)cn3)ccc2[nH]1)C(C)C [Compound 4] | 0.03 nM |
